Test system: synaptophysin (SYP)
Assay: Synaptophysin (SYP) protein and puncta in the penumbra after MCAo (immunofluorescence, Western blot)
Type: in vivo, mouse
Conditions: MCAo mice
Excerpt: FIGS. 14A-14D: Inhibition of let-7i enhances progesterone (P4)'s effect on the expression of synaptophysin in the penumbra. (FIG. 14A) Representative confocal images of penumbra region staining for synaptophysin (SYP, red) and DAPI (blue). (60×, Scale bars=30 μm). (FIG. 14B) Quantification of average relative SYP puncta presents in each field (n=3 per group). n.s: not significant and ***P<0.001 compared to sham, ### P<0.001 and ##P<0.01 compared to P4+scrambled. (FIG. 14C) Representative immunoblots probed for SYP protein. (FIG. 14D) Quantification graph of Syp signal, expressed as a ratio to Gapdh (n=4-5 per group). n.s: not significant, ***P<0.001 and **P<0.01 compared to sham, ## P<0.01 and #P<0.05 compared to P4+scrambled.
Primary cortical astrocytes and mouse brains were lysed with RIPA lysis buffer containing protease and phosphatase inhibitors, as previously described (44). […] Total protein concentrations were determined using the Bio-Rad DC protein assay kit (Bio-Rad Laboratories). […]
Mouse brains were fixed in 4% PFA overnight at 4° C. and subsequently cryoprotected in 30% sucrose solution. […] After immunostaining, sections were mounted onto microscope slides with Vectashield mounting medium (Vector Laboratories) and observed under a confocal fluorescence microscope (FV1200, Olympus) with a […] objective. […]

CC(=O)[C@H]1CC[C@H]2[C@@H]3CCC4=CC(=O)CC[C@]4(C)[C@H]3CC[C@]12C [P4, progesterone]
SYP total protein expression in the penumbra (day 7 and day 14, FIG. 14D): delayed, but sustained, restoration
number of SYP puncta in the penumbra (day 14, FIG. 14B): positive effect
